Legend:
Format in all cases: functional
[1] = target: T1, Oxytocin receptor (Homo sapiens, UniProt P30559); assay: Antagonist activity at human cloned OT receptor by cell based beta-lactamase reporter gene assay
T1 sequence (P30559 whole entry): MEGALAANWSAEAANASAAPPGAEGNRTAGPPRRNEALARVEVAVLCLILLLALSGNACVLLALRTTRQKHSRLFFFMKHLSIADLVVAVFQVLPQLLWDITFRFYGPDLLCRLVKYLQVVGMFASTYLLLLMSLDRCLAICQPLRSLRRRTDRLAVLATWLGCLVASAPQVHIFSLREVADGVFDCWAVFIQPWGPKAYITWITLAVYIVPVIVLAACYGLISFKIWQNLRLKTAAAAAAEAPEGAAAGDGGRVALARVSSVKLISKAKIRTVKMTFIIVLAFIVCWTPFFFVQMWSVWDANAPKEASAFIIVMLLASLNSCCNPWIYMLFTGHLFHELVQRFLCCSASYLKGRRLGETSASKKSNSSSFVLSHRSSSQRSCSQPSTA

[2] = target: Vasopressin V1a receptor (Homo sapiens, UniProt P37288); assay: Antagonist activity at human cloned vasopressin V1A receptor by cell based beta-lactamase reporter gene assay
Sequence of Vasopressin V1a receptor (P37288 whole entry): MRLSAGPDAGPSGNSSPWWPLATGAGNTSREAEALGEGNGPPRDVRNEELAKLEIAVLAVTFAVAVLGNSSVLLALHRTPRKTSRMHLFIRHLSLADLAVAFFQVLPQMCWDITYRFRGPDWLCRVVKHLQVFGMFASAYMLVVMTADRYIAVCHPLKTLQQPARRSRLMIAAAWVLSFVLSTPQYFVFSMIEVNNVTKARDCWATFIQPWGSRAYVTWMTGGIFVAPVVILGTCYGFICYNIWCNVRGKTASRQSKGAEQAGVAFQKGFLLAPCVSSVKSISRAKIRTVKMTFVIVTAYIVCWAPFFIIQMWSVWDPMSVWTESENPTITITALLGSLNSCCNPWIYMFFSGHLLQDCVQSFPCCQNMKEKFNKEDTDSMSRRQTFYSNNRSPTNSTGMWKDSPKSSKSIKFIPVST

[3] = target: Vasopressin V2 receptor (Homo sapiens, UniProt P30518); assay: Antagonist activity at human cloned vasopressin V2 receptor by cell based beta-lactamase reporter gene assay
Sequence of Vasopressin V2 receptor (P30518 whole entry): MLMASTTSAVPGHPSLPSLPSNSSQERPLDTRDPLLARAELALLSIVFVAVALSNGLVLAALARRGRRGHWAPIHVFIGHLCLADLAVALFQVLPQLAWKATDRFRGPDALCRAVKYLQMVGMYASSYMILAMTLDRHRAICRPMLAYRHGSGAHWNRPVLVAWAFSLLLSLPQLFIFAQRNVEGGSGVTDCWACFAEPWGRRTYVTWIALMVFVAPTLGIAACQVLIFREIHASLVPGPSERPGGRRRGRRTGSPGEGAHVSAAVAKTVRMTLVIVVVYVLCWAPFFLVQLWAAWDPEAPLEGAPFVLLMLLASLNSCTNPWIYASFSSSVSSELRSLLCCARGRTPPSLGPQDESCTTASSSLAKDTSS

[4] = target: T2, Vasopressin V1b receptor (Homo sapiens) (UniProt P47901); assay: Antagonist activity at human cloned vasopressin V1B receptor at 10 uM by cell based beta-lactamase reporter gene assay; parameters: scale not given: the % may be the effect or the level left
T2 sequence (whole entry): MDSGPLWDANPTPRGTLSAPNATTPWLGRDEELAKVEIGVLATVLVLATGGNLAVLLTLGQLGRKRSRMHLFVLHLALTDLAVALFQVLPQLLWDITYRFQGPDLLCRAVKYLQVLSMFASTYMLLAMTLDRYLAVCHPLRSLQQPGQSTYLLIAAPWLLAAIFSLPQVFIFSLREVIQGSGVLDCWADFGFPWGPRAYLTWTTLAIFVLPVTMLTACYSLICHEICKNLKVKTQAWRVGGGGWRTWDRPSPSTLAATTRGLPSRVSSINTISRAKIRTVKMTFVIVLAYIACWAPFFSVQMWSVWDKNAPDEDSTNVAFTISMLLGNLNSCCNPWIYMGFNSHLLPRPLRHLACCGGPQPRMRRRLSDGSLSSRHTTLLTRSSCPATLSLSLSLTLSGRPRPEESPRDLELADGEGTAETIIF

| SMILES | Ki [1] [nM] | Ki [2] [nM] | Ki [3] [nM] | Activity [4] [%] |
| --- | --- | --- | --- | --- |
| CCN(C(=O)c1ccc(-c2ccc(OC)cc2)[nH]c1=O)c1ccc(OC)nc1 | 84 | – | – | – |
| COc1ccc(N(C(=O)c2cnc(-c3ccccc3C)cn2)C(C)C)cn1 | 150 | > 10000 | > 10000 | – |
| CCN(C(=O)COc1ccc2ccccc2c1)c1ccc(OC)nc1 | 48 | – | – | – |
| COCCN(C(=O)c1cnn(-c2ccccc2)c1C)c1ccc(OC)nc1 | 98 | – | – | – |
| COc1ccc(N(C)C(=O)c2cnc(-c3ccccc3C)cn2)cn1 | 92 | 1100 | > 10000 | – |
| CCN(C(=O)c1ccc(-c2ccccc2)[nH]c1=O)c1ccc(OC)nc1 | 97 | – | – | – |
| CCN(C(=O)COc1ccc(C(C)C)cc1)c1ccc(OC)nc1 | 251 | – | – | – |
| CCN(C(=O)c1cnn(-c2ccccc2)c1C)c1ccc(OC)nc1 | 85 | – | – | – |
| COc1ccc(N(C(=O)c2cnc(-c3cccc(C)c3C)cn2)C(C)C)cn1 | 14 | > 10000 | 2300 | – |
| COCCN(C(=O)c1cnc(-c2ccc(C#N)cc2C)cn1)c1ccc(OC)nc1 | 433 | 12000 | > 10000 | – |
| COc1ccc(N(C)C(=O)c2cnc(-c3ccc(C#N)cc3C)cn2)cn1 | 620 | > 10000 | > 10000 | – |
| CCN(C(=O)c1cnn(-c2ccc(OC)cc2)c1C)c1ccc(OC)nc1 | 91 | – | – | – |
| CCN(C(=O)c1cc(-c2ccc(C)cc2)n[nH]1)c1ccc(OC)nc1 | 41 | – | – | – |
| CCN(C(=O)c1cnc(-c2ccccc2C)cn1)c1ccc(OC)nc1 | 129 | 2300 | > 10000 | – |
| CCN(C(=O)c1cnc(-c2cccc(C)c2C)cn1)c1ccc(OC)nc1 | 25 | 472 | 2830 | < 20 |
| COc1ccc(N(C)C(=O)c2cnc(-c3ccc(F)cc3C)cn2)cn1 | 218 | 2000 | – | – |
| COc1ccc2oc(C(=O)N(C)c3ccc(OC)nc3)cc2c1 | 232 | – | – | – |
| CCN(C(=O)c1cnc(-c2ccc(C#N)cc2C)cn1)c1ccc(OC)nc1 | 393 | 7200 | > 10000 | – |
| COCCN(C(=O)c1cnc(-c2cccc(C)c2C)cn1)c1ccc(OC)nc1 | 11 | 539 | 2400 | < 20 |
| CCN(C(=O)c1cc2cc(OC)ccc2o1)c1ccc(OC)nc1 | 85 | – | – | – |
| COc1ccc(N(C)C(=O)c2ccc(-c3ccccc3)cc2)cn1 | 90 | – | – | – |
| COCCN(C(=O)c1cnc(-c2ccccc2C)cn1)c1ccc(OC)nc1 | 115 | 3300 | > 10000 | – |
| CCN(C(=O)c1cnc(-c2cccc(F)c2C)cn1)c1ccc(OC)nc1 | 29 | 5900 | 343 | – |

Reference: ChEMBL document CHEMBL1156290, “Identification of amide bioisosteres of triazole oxytocin antagonists” (Bioorg Med Chem Lett, 2010)
